What was measured:
[1] = test system: Galr2–β-arrestin2–clathrin complex; assay: β-arrestin2–clathrin interactions (NanoBit); type: cell-based, human; conditions: 30 μM cmpd101 (GRK2/3 inhibitor) pretreatment; 10 μM agonist
From the text: The interaction between β-arrestin2 and clathrin induced by the activation of Galr2 was examined using the NanoBit technology. We measured real-time association of the protein complex Galr2–β-arrestin2–clathrin. We constructed β-arrestin2 and clathrin subunit A tagged with LgBit or SmBit at the C or N termini and screened eight different plasmid combinations, out of which only one combination (β-arrestin2–LgBit:SmBit–clathrin) responded to ligand stimulation (Fig. 3, Supplementary Fig. 3). Before ligand stimulation, Galr2, β-arrestin2, and clathrin were not in close proximity and so the basal luminescence was very low. […] A time course experiment was initially performed to determine the time at which the maximal increase in luminescence occurred following agonist stimulation. All ligands except for Fmoc-dA4-dQ14 induced different fold increase in luminescence immediately after ligand treatment (Fig. 3b). […] Galanin- and Spexin-induced increases in luminescence were attenuated by pretreatment of cmpd101, a G-protein-coupled receptor kinase 2/3 (GRK2/3) inhibitor, indicating contribution of GRK2/3 in the formation of Galr2–β-arrestin2–clathrin complex (Fig. 3).
The arrows indicate the time when the cells were treated with different ligands. […] The results are expressed as mean ± s.e.m. of three experiments performed in triplicate. Each triplicate was averaged before calculating the s.e.m.
(§1) Quantification of bias between each pathway was performed using Galanin as a reference ligand. All incubations for the different signaling assays were performed in serum-free medium to prevent peptide degradation.
One day before transfection, cells were seeded in 96-well plates at a density of 2.5 × 10^4 cells per well. A mixture containing 35 ng β-arrestin construct containing the LgBit or SmBit, 35 ng clathrin subunit A containing one of the two domains of Nluc and 30 ng untagged receptor, and 0.2 μl Lipofectamine 2000 (Invitrogen) was prepared and added to each well. We followed the assay manufacturer’s instructions and tested eight β-arrestin-clathrin plasmid combinations. In only one plasmid combination we were able to observe luminescent signal and it was chosen for further experiments. At 24 h post transfection, medium was aspirated and replaced with 100 μl OPTIMEM at room temperature. After a 10-min incubation, 25 μl substrate (furimazine) was added and the luminescence was monitored once every minute for 10 min. Then, 10 μl ligand was added to each well and the luminescence values were recorded immediately and once every minute for 1 h (Synergy 2 Multi-Mode Microplate Reader BioTek).

Galr2 = Galr2 internalization assay based on HiBiT technology; type: cell-based, human; conditions: 30 μM Cmpd101 30 min; 25 μM PitStop 2 (clathrin) 15 min; 80 μM Dynasore (dynamin) 40 min; Galanin 30 min
Description: The HiBiT protein tagging system, like NanoBiT technology, consists of two subunits: the large fragment (LgBiT) with 156 amino acids and the small fragment of Nluc (SmBiT-High-affinity) with only 11 amino acids that has a very high affinity to LgBit. To quantify Galr2 at the cell surface, cells expressing Galr2 tagged with the SmBiT-High-affinity were treated with cell-impermeable LgBiT along with the Nluc substrate furimazine. SmBiT-High-affinity-Galr2 on the cell surface binds to LgBiT which produces a luminescent signal, while SmBiT-High-affinity-Galr2 inside the cells cannot bind to LgBiT (Fig. 4a).
Fig. 4 Internalization of Galr2. a Schematic representation of the internalization assay. […] Before ligand stimulation, cells were pretreated with 30 μM Cmpd101 (a GRK2/3 inhibitor) for 30 min, 25 μM PitStop 2 (a Clathrin inhibitor) for 15 min, and 80 μM Dynasore (a Dynamin inhibitor) for 40 min. […] Remaining cell surface receptors were determined by measuring the luminescent signal produced by the binding between LgBiT and the Galr2-SmBiT-High affinity. Each data point represents mean ± s. e. m. of two independent experiments performed in triplicate
as §1
Internalization assays were performed using the Nano-Glo HiBiT extracellular detection system acquired from Promega Corporation (Cat. No. N2421). The day before transfection, HEK293 cells were seeded in 96-well plates at a density of 2.5 × 10^4 cells per well. The following day, cells were transfected with a mixture prepared containing 0.5 ng of SmBiT-high-affinity-Galr2 construct and 0.2 μl Lipofectamine 2000 (Invitrogen) added to each well. […] Then luminescence values were recorded immediately (Synergy 2 Multi-Mode Microplate Reader BioTek). […]

[2] = test system: luteinizing hormone (LH) secretion; conditions: cited from earlier work
From the text: G-protein-coupled receptors (GPCRs) are the largest family of cell surface receptors that communicate extracellular stimuli to the cell interior[1]. Biased ligands are of particular interest because they offer the possibility to design a novel class of therapeutic agents. In some GPCRs, biased ligands that preferentially activate G-protein-dependent signaling have therapeutic potential. […] Most descriptions of biased ag ...

Cn1c(CNc2cccc(C(=O)NCc3ccccc3C(F)(F)F)c2)nnc1-c1ccncc1 [cmpd101, reference compound]
effect of pretreatment on Galanin- and Spexin-induced β-arrestin2–clathrin luminescence increase [1]: attenuated
effect of inhibitor on Galanin-induced Galr2 internalization (Galr2): partially blocked

galanin-like peptide: galanin-like peptide, a Galanin paralog (APAHRGRGGWTLNSAGYLLGPVLHLPQMGDQDGKRETALEILDLWKAIDGLPYSHPPQPS; Galanin-like peptide; UniProt Q9UBC7 25-84, looked up)
LH secretion, rat [2]: stimulates luteinizing hormone (LH) secretion
